Laboratory results from ChEMBL document CHEMBL5038658, “Structure-Activity Relationship of 3-Methylcytidine-5'-α,β-methylenediphosphates as CD73 Inhibitors” (J Med Chem, 2022).
Calls of active or inactive are those of the source. No cut-off for these calls is given here.

Legend:
5'-nucleotidase [1] = molecular target: T1, 5'-nucleotidase (Homo sapiens, UniProt P21589); assay: Inhibition of human soluble CD73 assessed as inhibition constant
5'-nucleotidase [2] = molecular target: T1, 5'-nucleotidase; assay: Inhibition of 5'-Nucleotidase activity in human HN-SCC cells assessed as reduction in tumor CD73 catalytic activity incubated for 45 mins in presence of Pb(NO3)2 by […] based assay; format: cell-based; settings: dose 50-250 nM
5'-nucleotidase [3] = molecular target: T1, 5'-nucleotidase; assay: Inhibition of 5'-Nucleotidase activity in human tonsils assessed as reduction in CD73 catalytic activity in tonsils incubated for 45 mins in presence of Pb(NO3)2 by […] based assay; format: tissue-based; settings: Tonsil, dose 50-250 nM
5'-nucleotidase [4] = molecular target: T1, 5'-nucleotidase; assay: Inhibition of human soluble CD73 at 0.03 to 50000 nM relative to control; settings: dose 0.03-50000 nM

T1 sequence (P21589 whole entry): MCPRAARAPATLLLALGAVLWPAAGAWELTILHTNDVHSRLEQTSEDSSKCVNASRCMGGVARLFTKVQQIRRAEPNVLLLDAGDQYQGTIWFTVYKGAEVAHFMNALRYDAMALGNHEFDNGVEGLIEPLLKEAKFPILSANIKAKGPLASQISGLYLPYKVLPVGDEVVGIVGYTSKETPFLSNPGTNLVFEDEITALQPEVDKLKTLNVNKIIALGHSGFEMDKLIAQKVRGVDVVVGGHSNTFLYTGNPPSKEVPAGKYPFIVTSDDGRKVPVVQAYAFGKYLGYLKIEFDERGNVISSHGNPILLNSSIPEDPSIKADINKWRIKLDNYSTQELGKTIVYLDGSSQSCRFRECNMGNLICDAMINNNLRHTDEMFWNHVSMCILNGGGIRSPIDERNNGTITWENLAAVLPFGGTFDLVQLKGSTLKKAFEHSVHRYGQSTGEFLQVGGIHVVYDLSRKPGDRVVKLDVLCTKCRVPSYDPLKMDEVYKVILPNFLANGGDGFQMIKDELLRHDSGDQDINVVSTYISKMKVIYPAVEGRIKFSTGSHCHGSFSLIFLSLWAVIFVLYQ

| Structure (SMILES) | Ki (5'-nucleotidase [1]) | other results |
| --- | --- | --- |
| Cn1c(=O)n([C@@H]2O[C@H](COP(=O)(O)CP(=O)(O)O)[C@@H](O)[C@H]2O)cc/c1=N/OCc1ccc(C(=O)O)cc1 | 14.1 nM | – |
| CCOC(=O)CCNC(=O)c1ccc(CO/N=c2/ccn([C@@H]3O[C@H](COP(=O)(O)CP(=O)(O)O)[C@@H](O)[C@H]3O)c(=O)n2C)cc1 | 2.51 nM | – |
| Cn1c(=O)n([C@H]2[C@H](O)[C@H](O)[C@]3(COP(=O)(O)CP(=O)(O)O)C[C@H]23)cc/c1=N/OCc1ccc(Cl)cc1 | 59.2 nM | – |
| CCc1ccc(CO/N=c2/ccn([C@@H]3O[C@H](COP(=O)(O)CP(=O)(O)O)[C@@H](O)[C@H]3O)c(=O)n2C)cc1 | 3.5 nM | – |
| Cn1c(=O)n([C@@H]2O[C@H](COP(=O)(O)CP(=O)(O)O)[C@@H](O)[C@H]2O)cc/c1=N/OCc1ccc(C(F)(F)F)cc1 | 1.08 nM | – |
| Cn1c(=O)n([C@@H]2O[C@H](COP(=O)(O)CP(=O)(O)O)[C@@H](O)[C@H]2O)cc/c1=N/C(=O)NCc1ccccc1 | 71.5 nM | – |
| Cn1c(=O)n([C@@H]2O[C@H](COP(=O)(O)CP(=O)(O)O)[C@@H](O)[C@H]2O)cc/c1=N/OCc1ccc(C(N)=O)cc1 | 1.76 nM | – |
| O=c1[nH]c(=O)n([C@@H]2O[C@H](COP(=O)(O)CP(=O)(O)O)[C@@H](O)[C@H]2O)cc1F | 2540 nM | – |
| Cn1c(=O)n([C@@H]2O[C@H](COP(=O)(O)CP(=O)(O)O)[C@@H](O)[C@H]2O)cc/c1=N/OCc1ccc(C(=O)NCCC(=O)O)cc1 | 2.61 nM | – |
| Nc1ncnc2c1ncn2[C@@H]1O[C@H](COP(=O)(O)CP(=O)(O)O)[C@@H](O)[C@H]1O | – | inhibition (5'-nucleotidase [2]): inactive; inhibition (5'-nucleotidase [3]): inactive |
| Cn1c(=O)n([C@@H]2O[C@H](COP(=O)(O)CP(=O)(O)O)[C@@H](O)[C@H]2O)cc/c1=N/OCc1ccc(C(=O)NCCN)cc1 | 0.626 nM | – |
| COC(=O)c1ccc(CO/N=c2/ccn([C@@H]3O[C@H](COP(=O)(O)CP(=O)(O)O)[C@@H](O)[C@H]3O)c(=O)n2C)cc1 | 0.848 nM | – |
| Cn1c(=O)n([C@@H]2O[C@H](COP(=O)(O)CP(=O)(O)O)[C@@H](O)[C@H]2O)cc/c1=N/OCc1cccc(Cl)c1 | 1.58 nM | – |
| Cn1c(=O)n([C@@H]2O[C@H](COP(=O)(O)CP(=O)(O)O)[C@@H](O)[C@H]2O)cc/c1=N/OCc1cccc(C(F)(F)F)c1 | 1.27 nM | – |
| O=c1ccn([C@H]2[C@H](O)[C@H](O)[C@]3(COP(=O)(O)CP(=O)(O)O)C[C@H]23)c(=O)[nH]1 | > 50000 nM | inhibition (5'-nucleotidase [4]): 28% |
| Cn1c(=O)n([C@@H]2O[C@H](COP(=O)(O)CP(=O)(O)O)[C@@H](O)[C@H]2O)cc/c1=N/OCc1ccc(C(=O)NCCCCN)cc1 | 1.78 nM | – |
| Cn1c(=O)n([C@@H]2O[C@H](COP(=O)(O)CP(=O)(O)O)[C@@H](O)[C@H]2O)cc/c1=N/OCc1ccc(Br)cc1 | 0.441 nM | – |
| Cn1c(=O)n([C@@H]2O[C@H](COP(=O)(O)CP(=O)(O)O)[C@@H](O)[C@H]2O)cc/c1=N/OCc1ccc(F)cc1 | 1.14 nM | – |
| Cn1c(=O)n([C@@H]2O[C@H](COP(=O)(O)CP(=O)(O)O)[C@@H](O)[C@H]2O)cc/c1=N/OCc1ccccc1Cl | 1.63 nM | – |
| Cc1ccc(CO/N=c2/ccn([C@@H]3O[C@H](COP(=O)(O)CP(=O)(O)O)[C@@H](O)[C@H]3O)c(=O)n2C)cc1 | 0.894 nM | – |
| Cn1c(=O)n([C@@H]2O[C@H](COP(=O)(O)CP(=O)(O)O)[C@@H](O)[C@H]2O)cc/c1=N/OCc1ccc(S(F)(F)(F)(F)F)cc1 | 0.511 nM | inhibition (5'-nucleotidase [2]): Dose-Dependent Effect; inhibition (5'-nucleotidase [3]): Dose-Dependent Effect |
| Cn1c(=O)n([C@@H]2O[C@H](COP(=O)(O)CP(=O)(O)O)[C@@H](O)[C@H]2O)cc/c1=N/OCc1ccc(I)cc1 | 0.436 nM | inhibition (5'-nucleotidase [2]): Dose-Dependent Effect; inhibition (5'-nucleotidase [3]): Dose-Dependent Effect |
